Experimental data from patent US5840745A, “Hydrosoluble 3-arylidene-2-oxindole derivatives as tyrosine kinase inhibitors” (Pharmacia S. p. A., priority 1995, dated 1998).
Where a name gives a salt, the structure may show the parent alone.

Experiments:
[1] = target: p45 v-abl tyrosine kinase; assay: in vitro p45 v-abl kinase assay ((Val^5)-Angiotension II phosphorylation); format: biochemical, Abelson murine leukaemia virus; details: 40 ng purified abl-kinase; peptide (2 Mm) and ATP (50 μM); 30° C., pH 8.0; triplicated determinations; read-out: IC50 v-abl, inhibition of p45 v-abl kinase
Protocol: p45 v-abl Kinase Purification
The enzyme used in our test was the p45 v-abl tyrosine kinase which represents the catalytic domain of the Abelson tyrosine kinase (isolated from the Abelson murine leukaemia virus). The p45 v-abl kinase was produced and isolated as described by Wang et al. in J. Biol. Chem. 260, 64 (1985) and by Ferguson et al. in J. Biol. Chem. 260, 3652 (1985) and in Biochem. J. 257, 321 (1989).
(Val^5)-Angiotension II phosphorylation was performed by incubation with 40 ng of purified abl-kinase and (γ-^32 p)-ATP, in 50 μl of buffer containing Tris-HCl 25 mM, pH 8.0, MgCl2 10 mM and dithiothreitol 0.1 mM (kinase buffer). The reaction mixture was incubated for the indicated time at 30° C. and the reaction stopped by adding 50 μl of 5% trichloroacetic acid. After a brief incubation on ice, tubes were centrifuged. The supernatants were spotted on phosphocellulose paper squares (Whatman P-81) and washed extensively in acetic acid. The radioactivity bound to dried phosphocellulose squares was measured in a liquid scintillation counter. IC50 values were calculated from triplicated determinations of each experimental point. Each inhibitor was tested at concentrations ranging from […] in the presence of fixed concentrations of peptide (2 Mm) and ATP (50 μM). […]

[2] = system: K562 cells (human chronic myeloid leukemia); assay: K562 cell growth inhibition assay; format: cell-based; details: 72 h, 10000 cells/well, cell count versus untreated control cells
Protocol: K562 Cell Growth Inhibition Assay
K562 cells, a human myelogenous leukemia cell line, were seeded into a 24 wells tissue culture plate (Falcon 3047) (10000/well) in the presence of increasing concentrations of the compounds. After 72 h, cells were harvested and were counted using a cell counter (Coulter Counter--ZM). The percent of inhibition was evaluated in respect to the untreated control cells.
The inhibitory activity data for two representative compounds according to the present invention, obtained both in the in vitro p45 v-abl kinase assay and the in vivo human chronic myeloid leukemia K562 cell growth inhibition assay described above, are set out in the following Table I.

Compound | IC50 [1] [nM] | IC50 [2] [nM]
COc1ccc2[nH]cc(C=C3C(=O)Nc4ccc(NC(=O)CCN5CCCCC5)cc43)c2c1 [5-(3-piperidinopropionylamino)-3-(5-methoxyindol-3-ylmethylene)-2-oxindole.HCl] | 1730 | 3700
CCOC(=O)c1ccc2c(c1)C(=Cc1c[nH]c3ccc(OC)cc13)C(=O)N2 [5-carboethoxy-3-(5-methoxyindol-3-ylmethylene)-2-oxindole] | 1990 | 2340
